Laboratory results as given in the NIST ThermoML archive (doi:10.1007/s10765-009-0622-2).

Legend:
[1] = xn = mol fraction of the nth substance listed; conditions: 298.15 K, 101 kPa, Liquid
[2] = 298.15 K; 101.33 kPa; Liquid

CCc1ccccc1 [ethylbenzene] + CCCCCC
[1]
Conditions	viscosity [mPa·s]
x2 = 0.0437	0.6071
x2 = 0.0884	0.5751
x2 = 0.183	0.5169
x2 = 0.2262	0.4791
x2 = 0.2774	0.4672
x2 = 0.3283	0.445
x2 = 0.3784	0.4234
x2 = 0.4359	0.4047
x2 = 0.488	0.3902
x2 = 0.5429	0.3761
x2 = 0.5916	0.3654
x2 = 0.6534	0.3527
x2 = 0.705	0.3426
x2 = 0.7644	0.3326
x2 = 0.809	0.325
x2 = 0.8882	0.313
x2 = 0.9478	0.3046

Cc1ccc(C)cc1 [1,4-dimethylbenzene]
[2]
Conditions	mass density [kg/m3]	viscosity [mPa·s]
–	856.51	0.5999

Cc1cccc(C)c1 [1,3-dimethylbenzene]
[2]
Conditions	mass density [kg/m3]	viscosity [mPa·s]
–	859.78	0.583

Cc1cccc(C)c1 [1,3-dimethylbenzene] + CCCCCC
[1]
Conditions	viscosity [mPa·s]
x2 = 0.1329	0.4984
x2 = 0.1519	0.4896
x2 = 0.2717	0.4418
x2 = 0.339	0.4221
x2 = 0.4303	0.3978
x2 = 0.448	0.3935
x2 = 0.5734	0.3652
x2 = 0.643	0.3513
x2 = 0.6663	0.3473
x2 = 0.719	0.3389
x2 = 0.8049	0.3238
x2 = 0.873	0.3175
x2 = 0.9278	0.3115

CCCCCC [hexane]
[2]
Conditions	mass density [kg/m3]	viscosity [mPa·s]
–	654.7	0.2973

Cc1ccccc1C [1,2-dimethylbenzene]
[2]
Conditions	mass density [kg/m3]	viscosity [mPa·s]
–	874.89	0.7506

CCc1ccccc1 [ethylbenzene]
[2]
Conditions	mass density [kg/m3]	viscosity [mPa·s]
–	862.37	0.6369

Cc1ccccc1C [1,2-dimethylbenzene] + CCCCCC
[1]
Conditions	mass density [kg/m3]	viscosity [mPa·s]
x2 = 0.052	863.09	0.678
x2 = 0.1413	842.86	0.5944
x2 = 0.2482	818.74	0.5239
x2 = 0.2901	809.33	0.493
x2 = 0.355	794.79	0.462
x2 = 0.4004	784.66	0.4425
x2 = 0.4815	766.65	0.4126
x2 = 0.51	760.35	0.4031
x2 = 0.5856	743.71	0.3816
x2 = 0.6351	732.88	0.3711
x2 = 0.6753	724.12	0.3632
x2 = 0.7858	700.23	0.3344
x2 = 0.8317	690.38	0.3264
x2 = 0.9014	675.52	0.314

Cc1ccc(C)cc1 [1,4-dimethylbenzene] + CCCCCC
[1]
Conditions	mass density [kg/m3]	viscosity [mPa·s]
x2 = 0.0423	847.8	0.566
x2 = 0.1073	834.45	0.5235
x2 = 0.2137	812.6	0.4702
x2 = 0.2956	795.81	0.4378
x2 = 0.3769	779.21	0.4119
x2 = 0.4201	770.42	0.3998
x2 = 0.5355	747.03	0.3717
x2 = 0.562	741.69	0.3654
x2 = 0.6427	725.47	0.3502
x2 = 0.7455	704.95	0.3324
x2 = 0.7909	695.94	0.3256
x2 = 0.8792	678.48	0.313
x2 = 0.9599	662.62	0.3024
